# Measured values from ChEMBL document CHEMBL5576070, “The recent discovery of a promising pharmacological scaffold derived from carvacrol: A review” (Bioorg Med Chem Lett, 2024).
# Columns and labels:
# Escherichia coli [1] = experiment: Antibacterial activity against Escherichia coli ATCC 25922 assessed as zone of inhibition incubated for 24 hrs by agar diffusion method; assay type: functional
# MIA PaCa-2 = experiment: Growth inhibition of human MIA PaCa-2 cells measured for 48 hrs by SRB assay; assay type: functional
# Mushroom tyrosinase = Mushroom tyrosinase (Agaricus bisporus, UniProt O42713+Q00024+C7FF04+C7FF05); experiment: Inhibition of mushroom tyrosinase using L-DOPA as substrate by spectrophotometric analysis; assay type: protein assay
# Cholinesterase = Cholinesterase (Homo sapiens, UniProt P06276); experiment: Inhibition of human BChE using butyrylthiocholine iodide as substrate incubated for 15 mins by spectrophotometric Ellman's method
# Acetylcholinesterase [2] = target: T1, Acetylcholinesterase (Homo sapiens, UniProt P22303); experiment: Inhibition of AChE (unknown origin)
# Bacillus subtilis = experiment: Antibacterial activity against Bacillus subtilis assessed as zone of inhibition; assay type: functional
# Escherichia coli [3] = experiment: microbe, parasite or virus in culture; settings: ATCC 25922, 24 h
# Staphylococcus aureus [4] = experiment: Antimicrobial activity against Staphylococcus aureus […] assessed as reduction in bacterial growth incubated for 24 hrs by Mueller-Hinton agar based analysis; assay type: functional
# Pseudomonas aeruginosa = experiment: Antibacterial activity against Pseudomonas aeruginosa ATCC 15442 assessed as reduction in bacterial growth incubated for 24 hrs by Mueller-Hinton agar based analysis; assay type: functional
# [5] = tested on: Staphylococcus epidermidis; experiment: Antimicrobial activity against Staphylococcus epidermidis ATCC 12228 assessed as reduction in bacterial growth incubated for 24 hrs by Mueller-Hinton agar based analysis; assay type: functional
# Escherichia coli [6] = experiment: Antibacterial activity against Escherichia coli assessed as reduction in bacterial growth incubated for 24 hrs by Mueller-Hinton agar based analysis; assay type: functional
# Helicobacter pylori = experiment: Antibacterial activity against Helicobacter pylori assessed as reduction in bacterial growth incubated for 24 hrs by broth micro-dilution method; assay type: functional
# Acetylcholinesterase [7] = target: T1, Acetylcholinesterase; experiment: Inhibition of AChE (unknown origin) using acetylthiocholine iodide as substrate by Ellman's method
# Proteus vulgaris = experiment: Antimicrobial activity against Proteus vulgaris NCIM 2813 assessed as zone of inhibition incubated for 24 hrs by agar diffusion method; assay type: functional
# Staphylococcus aureus [8] = experiment: Antibacterial activity against Staphylococcus aureus ATCC 25923 assessed as zone of inhibition by agar diffusion method; assay type: functional
# Escherichia coli [9] = experiment: Antibacterial activity against Escherichia coli assessed as reduction in bacterial growth inhibition; assay type: functional
# Salmonella enteritidis = experiment: Antibacterial activity against Salmonella enterica subsp. enterica serovar Enteritidis assessed as reduction in bacterial growth inhibition; assay type: functional
# Clostridium perfringens = experiment: Antibacterial activity against Clostridium perfringens assessed as reduction in bacterial growth inhibition; assay type: functional
# Salmonella typhimurium = experiment: Antibacterial activity against Salmonella typhimurium DT104 assessed as reduction in bacterial growth inhibition; assay type: functional, Salmonella enterica subsp. enterica serovar Typhimurium
# Phytophthora capsici = experiment: Antifungal activity against Phytophthora capsici; assay type: functional, organism-based
# Escherichia coli [10] = experiment: Antibacterial activity against Escherichia coli assessed as reduction in bacterial growth by broth microdilution method; assay type: functional
# Candida albicans [11] = experiment: Antifungal activity against Candida albicans assessed as reduction in fungal growth incubated for 24 hrs by broth microdilution method; assay type: functional
# [12] = Antioxidant activity assessed as DPPH radical scavenging activity incubated for 20 mins by spectrophotometric method; assay type: functional
# Candida albicans [13] = experiment: Fungicidal activity against Candida albicans assessed as reduction in fungal growth measured after 48 hrs by CLSI protocol based microdilution method; assay type: functional
# T1 sequence (P22303 whole entry): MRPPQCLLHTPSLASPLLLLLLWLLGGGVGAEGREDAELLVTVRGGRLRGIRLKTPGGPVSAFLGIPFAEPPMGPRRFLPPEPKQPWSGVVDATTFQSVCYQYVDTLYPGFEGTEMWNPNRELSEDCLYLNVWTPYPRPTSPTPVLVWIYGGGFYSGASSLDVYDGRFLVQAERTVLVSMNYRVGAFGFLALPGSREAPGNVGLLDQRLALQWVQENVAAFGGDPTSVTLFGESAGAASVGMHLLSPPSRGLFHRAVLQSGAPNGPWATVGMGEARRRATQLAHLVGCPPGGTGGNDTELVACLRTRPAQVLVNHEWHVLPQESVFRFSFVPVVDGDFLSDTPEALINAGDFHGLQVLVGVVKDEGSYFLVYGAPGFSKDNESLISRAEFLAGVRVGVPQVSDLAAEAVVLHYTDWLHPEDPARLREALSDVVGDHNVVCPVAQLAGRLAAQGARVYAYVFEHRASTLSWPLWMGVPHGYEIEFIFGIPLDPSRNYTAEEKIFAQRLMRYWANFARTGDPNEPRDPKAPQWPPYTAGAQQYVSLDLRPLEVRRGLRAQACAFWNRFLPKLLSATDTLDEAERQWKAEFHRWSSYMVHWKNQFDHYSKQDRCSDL
# Sequence of Cholinesterase (P06276 whole entry): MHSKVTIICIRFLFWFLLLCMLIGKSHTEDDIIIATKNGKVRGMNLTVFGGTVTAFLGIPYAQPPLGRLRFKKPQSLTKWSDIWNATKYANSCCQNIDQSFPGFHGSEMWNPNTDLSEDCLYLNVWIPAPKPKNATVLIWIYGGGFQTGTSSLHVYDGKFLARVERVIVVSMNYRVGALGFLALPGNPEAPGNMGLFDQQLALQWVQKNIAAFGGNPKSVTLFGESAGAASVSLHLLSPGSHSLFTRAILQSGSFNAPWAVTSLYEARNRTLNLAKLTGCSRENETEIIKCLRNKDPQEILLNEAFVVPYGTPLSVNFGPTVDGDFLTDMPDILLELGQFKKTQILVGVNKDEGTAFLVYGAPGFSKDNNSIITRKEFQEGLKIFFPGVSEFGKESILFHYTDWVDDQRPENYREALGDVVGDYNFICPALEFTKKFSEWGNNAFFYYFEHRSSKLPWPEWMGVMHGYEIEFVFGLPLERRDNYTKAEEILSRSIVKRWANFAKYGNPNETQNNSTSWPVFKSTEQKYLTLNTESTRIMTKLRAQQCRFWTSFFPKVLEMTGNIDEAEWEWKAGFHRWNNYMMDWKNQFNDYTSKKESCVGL
structure (smiles),measurement,setting,value
Cc1ccc(C(C)C)cc1OCC(=O)NNS(=O)(=O)c1ccc(Cl)cc1,inhibition zone (IZ),Escherichia coli [1],10 mm
Cc1cc(C)c(S(=O)(=O)N/N=C/c2c(C(C)C)ccc(C)c2O)c(C)c1,GI50,MIA PaCa-2,10 µg/mL
Cc1ccc(C(C)C)cc1OC(=O)COC(=O)c1cccc(O)c1,IC50,Mushroom tyrosinase,14.9 µM
Cc1ccc(C(C)C)cc1OCC(=O)NCCNc1cccc2cccnc12,IC50,Cholinesterase,0.05 µM
same,IC50,Acetylcholinesterase [2],1.93 µM
Cc1ccc(C(C)C)cc1OCC(=O)Nc1ccccc1,inhibition zone (IZ),Bacillus subtilis,8 mm
Cc1ccc(C(C)C)cc1OC(=O)Cc1ccccc1,MIC,Escherichia coli [3],11.7 µg/mL
Cc1ccc(C(C)C)cc1OCC(=O)NCCN1CCN(C)CC1,IC50,Cholinesterase,0.05 µM
same,IC50,Acetylcholinesterase [2],1.93 µM
CSC[C@H](NC(C)=O)C(=O)Oc1cc(C(C)C)ccc1C,MIC,Staphylococcus aureus [4],10 µg/mL
same,MIC,Pseudomonas aeruginosa,10 µg/mL
same,MIC,[5],2.5 µg/mL
same,MIC,Escherichia coli [6],10 µg/mL
Cc1ccc(C(C)C)cc1OCc1ccc(S(C)(=O)=O)cc1,MIC,Helicobacter pylori,2 µg/mL
Cc1ccc(C(C)C)c(/C=N/c2c(C(C)C)ccc(C)c2O)c1O,GI50,MIA PaCa-2,16.9 µg/mL
Cc1ccc(C(C)C)cc1OCC(=O)NC1CCCCC1,IC50,Cholinesterase,0.05 µM
same,IC50,Acetylcholinesterase [2],1.93 µM
Cc1ccc(C(C)C)cc1OC(=O)CC(C)C,MIC,Escherichia coli [3],11.7 µg/mL
CC(=O)Oc1cc(C(C)C)ccc1C,MIC,Escherichia coli [3],11.7 µg/mL
Cc1ccc(C(C)C)cc1OCC(O)CNCc1cccnc1 (centres undefined),IC50,Acetylcholinesterase [7],0.136 µM
Cc1ccc(C(C)C)cc1OCC(=O)Nc1cccc(Cl)c1,inhibition zone (IZ),Proteus vulgaris,16 mm
same,inhibition zone (IZ),Staphylococcus aureus [8],17 mm
same,inhibition zone (IZ),Bacillus subtilis,21 mm
Cc1ccc(C(C)C)cc1OCC(=O)N1CCCCC1,IC50,Cholinesterase,0.05 µM
same,IC50,Acetylcholinesterase [2],1.93 µM
Cc1ccc(C(C)C)cc1OCC(=O)Nc1ccc(Cl)cc1,inhibition zone (IZ),Proteus vulgaris,10 mm
same,inhibition zone (IZ),Staphylococcus aureus [8],20 mm
same,inhibition zone (IZ),Bacillus subtilis,18 mm
Cc1ccc(C(C)C)cc1OC(=O)CCCC[C@@H]1CCSS1,MIC,Staphylococcus aureus [4],10 µg/mL
same,MIC,Pseudomonas aeruginosa,5 µg/mL
same,MIC,[5],10 µg/mL
same,MIC,Escherichia coli [6],5 µg/mL
C#CCSC[C@H](NC(C)=O)C(=O)Oc1cc(C(C)C)ccc1C,MIC,Staphylococcus aureus [4],10 µg/mL
same,MIC,Pseudomonas aeruginosa,10 µg/mL
same,MIC,[5],5 µg/mL
same,MIC,Escherichia coli [6],10 µg/mL
Cc1ccc(C(C)C)cc1OC(=O)COC(=O)c1ccc(O)cc1O,IC50,Mushroom tyrosinase,6.7 µM
Cc1ccc(C(C)C)cc1OCC(=O)NCCN1CCCC1,IC50,Cholinesterase,0.05 µM
same,IC50,Acetylcholinesterase [2],1.93 µM
CCN(CC)C(=O)COc1cc(C(C)C)ccc1C,IC50,Cholinesterase,0.05 µM
same,IC50,Acetylcholinesterase [2],1.93 µM
Cc1cc(S(=O)(=O)O)c(C(C)C)cc1O,MIC,Escherichia coli [9],0.75 %v/v
same,MIC,Salmonella enteritidis,0.37 %v/v
same,MIC,Clostridium perfringens,0.37 %v/v
same,MIC,Salmonella typhimurium,0.75 %v/v
CCSC[C@H](NC(C)=O)C(=O)Oc1cc(C(C)C)ccc1C,MIC,Staphylococcus aureus [4],10 µg/mL
same,MIC,Pseudomonas aeruginosa,10 µg/mL
same,MIC,[5],10 µg/mL
same,MIC,Escherichia coli [6],10 µg/mL
Cc1ccc(C(C)C)cc1OCC(=O)NCCN1CCOCC1,IC50,Cholinesterase,0.05 µM
same,IC50,Acetylcholinesterase [2],1.93 µM
Cc1ccc(C(C)C)cc1OC(=O)[C@@H]1CSC(=O)N1,MIC,Staphylococcus aureus [4],10 µg/mL
same,MIC,Pseudomonas aeruginosa,10 µg/mL
same,MIC,[5],10 µg/mL
same,MIC,Escherichia coli [6],10 µg/mL
Cc1ccc(C(C)C)cc1OC(=O)[C@@H]1CSCN1C(=O)C(F)(F)F,MIC,Staphylococcus aureus [4],5 µg/mL
same,MIC,Pseudomonas aeruginosa,10 µg/mL
same,MIC,[5],2.5 µg/mL
same,MIC,Escherichia coli [6],5 µg/mL
COc1ccc(CCNC(=O)COc2cc(C(C)C)ccc2C)cc1OC,IC50,Cholinesterase,0.05 µM
same,IC50,Acetylcholinesterase [2],1.93 µM
Cc1ccc(C(C)C)cc1OS(=O)(=O)c1cccs1,EC50,Phytophthora capsici,0.06124 µg/mL
CCCCCCCNC(=O)COc1cc(C(C)C)ccc1C,inhibition zone (IZ),Proteus vulgaris,7 mm
same,inhibition zone (IZ),Bacillus subtilis,6 mm
C[Se]CC[C@H](NC(C)=O)C(=O)Oc1cc(C(C)C)ccc1C,MIC,Staphylococcus aureus [4],10 µg/mL
same,MIC,Pseudomonas aeruginosa,5 µg/mL
same,MIC,[5],5 µg/mL
same,MIC,Escherichia coli [6],5 µg/mL
CCC(=O)Oc1cc(C(C)C)ccc1C,MIC,Escherichia coli [3],11.7 µg/mL
CSCC[C@H](NC(C)=O)C(=O)Oc1cc(C(C)C)ccc1C,MIC,Staphylococcus aureus [4],10 µg/mL
same,MIC,Pseudomonas aeruginosa,5 µg/mL
same,MIC,[5],10 µg/mL
same,MIC,Escherichia coli [6],10 µg/mL
Cc1ccc(C(C)C)c(/C=N/Nc2ccc(Cl)nn2)c1O,GI50,MIA PaCa-2,80 µg/mL
Cc1ccc(C(C)C)cc1O [CARVACROL],MIC,Escherichia coli [10],450 µg/mL
same,MIC,Candida albicans [11],256 µg/mL
same,MIC,Escherichia coli [9],<0.09 %v/v
same,MIC,Salmonella enteritidis,<0.09 %v/v
same,MIC,Staphylococcus aureus [4],0.6 µg/mL
same,inhibition zone (IZ),Proteus vulgaris,7 mm
same,IC50,[12],267 µg/mL
same,MIC,Clostridium perfringens,<0.09 %v/v
same,MIC,Pseudomonas aeruginosa,5 µg/mL
same,inhibition zone (IZ),Bacillus subtilis,13 mm
same,MIC,Salmonella typhimurium,0.37 %v/v
same,MIC,[5],0.3 µg/mL
same,MIC,Escherichia coli [6],0.6 µg/mL
same,MFC,Candida albicans [13],512 µg/mL
CCC(C)(NC(=O)c1cc(Cl)c(C)c(Cl)c1)C(=O)CCl (centres undefined) [ZOXAMIDE],EC50,Phytophthora capsici,0.0268 µg/mL
